Assay [1] has as its system deletion mutants of rat TRPV2. Kind of assay: Calcium mobilization in HEK293 cells expressing rat TRPV2 deletion mutants. It is filed as cell-based. Conditions: mutants lacking N-terminal 20, 32/33, 65/66 or C-terminal 11, 23, 32 residues. The text has this:
DNA molecules encoding the deletion mutants were amplified by PCR using the rat TRPV2 cDNA as the template. For amino-terminal deletions, a series N-terminal forward primers encoding an initiating methionine in frame with sequences matching adjacent regions of the desired start at residues G21 (mutant N20, SEQ ID NO:11), P33 (N32, SEQ ID NO:12), A66 (N65, SEQ ID NO:13) and V84 (N83, SEQ ID NO:14) paired with a C-terminal reverse primer were used for PCR amplification. While for carboxyl-terminal deletions, a forward N-terminal primer paired with a series C-terminal reverse primers ending at residues R706 (C51, SEQ ID NO:7), P729 (C32, SEQ ID NO:8), P738 (C23, SEQ ID NO:9) and E750 (C11, SEQ ID NO:10) with an in-frame stop codon at the terminal end of the open reading frame were used for amplification. After PCR amplification and purification, the DNA molecules encoding the deletion mutants were subcloned into the pCI-neo mammalian expression vector and the constructs were confirmed by DNA sequencing. […]
The deletion mutant constructs were then transfected into HEK293 cells using Fugene 6 reagent (Roche) as per the manufacturer's instructions. […] Calcium mobilization was triggered using Δ^9-THC or 2-APB or elevated temperature buffer and measured using either FLIPR or FLEX STATION instruments.
In general terms: Calcium assays in cells follow changes in intracellular calcium, usually with a dye or a luminescent sensor.

The target of assay [2] is T1, rat and human TRPV2 chimera HRR (Rattus norvegicus, UniProt Q9WUD2, A110E/A257S/D189N/D73N/DEL322-322/DEL56-59/DEL67-67/E160D/E240Q/E289D/E384A/E71D/E91D/F161Y/G295D/H202G/H269S/H293L/I268T/K144R/K150Q/K353E/K51R/L151P/L192A/L245Q/L96P/M137L/M277A/N102T/N368H/N45K/N63G/P261A/P325H/P38Q/P60Y/P61R/Q129K/Q163R/Q324S/Q70P/R100S/R388L/R392K/R41G/S264I/S291R/S346A/S391P/S46F/S47A/S65G/S82N/T227S/T93A/V390I/V83A/W101K/W351C/Y323L).
T1 construct: expressed in transfected cells; host or cells: HEK293, transient, pCI-neo
T1 sequence (Q9WUD2 with tags, fused parts or gaps P38Q/R41G/N45K/S46F/S47A/K51R/DEL56-59/P60Y/P61R/N63G/S65G/DEL67-67/Q70P/E71D/D73N/S82N/V83A/E91D/T93A/L96P/R100S/W101K/N102T/A110E/Q129K/M137L/K144R/K150Q/L151P/E160D/F161Y/Q163R/D189N/L192A/H202G/T227S/E240Q/L245Q/A257S/P261A/S264I/I268T/H269S/M277A/E289D/S291R/H293L/G295D/DEL322-322/Y323L/Q324S/P325H/S346A/W351C/K353E/N368H/E384A/R388L/V390I/S391P/R392K): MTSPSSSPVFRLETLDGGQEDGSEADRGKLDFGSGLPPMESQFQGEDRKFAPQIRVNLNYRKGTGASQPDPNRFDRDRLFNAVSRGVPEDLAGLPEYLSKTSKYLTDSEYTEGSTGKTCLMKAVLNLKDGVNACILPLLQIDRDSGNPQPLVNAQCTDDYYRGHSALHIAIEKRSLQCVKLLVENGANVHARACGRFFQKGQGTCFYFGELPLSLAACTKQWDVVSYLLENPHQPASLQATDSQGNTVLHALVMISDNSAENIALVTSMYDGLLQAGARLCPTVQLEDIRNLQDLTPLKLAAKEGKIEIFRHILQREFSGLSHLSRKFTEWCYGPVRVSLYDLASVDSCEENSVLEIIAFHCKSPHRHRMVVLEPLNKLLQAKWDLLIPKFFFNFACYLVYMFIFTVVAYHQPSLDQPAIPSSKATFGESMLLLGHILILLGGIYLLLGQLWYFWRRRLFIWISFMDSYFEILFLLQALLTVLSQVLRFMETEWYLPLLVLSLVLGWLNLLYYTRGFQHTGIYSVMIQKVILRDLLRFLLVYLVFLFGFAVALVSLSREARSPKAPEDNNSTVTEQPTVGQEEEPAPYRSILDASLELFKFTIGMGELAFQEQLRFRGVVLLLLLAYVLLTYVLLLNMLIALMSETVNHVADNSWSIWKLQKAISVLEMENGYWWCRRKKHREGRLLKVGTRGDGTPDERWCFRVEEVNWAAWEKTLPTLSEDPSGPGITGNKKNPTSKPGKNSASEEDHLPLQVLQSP
Kind of assay: Calcium mobilization in HEK293 cells expressing TRPV2 chimera HRR. It is filed as cell-based. Conditions: expressed separately in HEK cells. The procedure:
The deletion mutant constructs were then transfected into HEK293 cells using Fugene 6 reagent (Roche) as per the manufacturer's instructions. At 24 hours post-transfection, the cells were harvested and replated in fresh DMEM medium supplemented with 10% fetal bovine serum, 100 units/ml penicillin, and 100 μg/ml streptomycin. The cells were distributed onto poly-D-Lysine coated 96-or 384-well plates at a density of approximately 40,000 and 10,000 cells per well, respectively. At approximately 48 hours post-transfection, the medium was removed from the assay plate and replaced with Calcium 3 Dye Buffer (Molecular Devices) using the protocol available from the manufacturer. Calcium mobilization was triggered using Δ^9-THC or 2-APB or elevated temperature buffer and measured using either FLIPR or FLEX STATION instruments.
Based on the predicted topology and primary sequence features of TRPV2, TRPV2 are divided into 3 major domains: 1) the amino-terminal intracellular domain; 2) the transmembrane domain; and 3) the carboxyl-terminal intracellular domain. For a chimera, each domain can be of rat (R) or human (H) origin. Three rat and human TRPV2 chimera were constructed and tested herein. RRH (SEQ ID NO:15) was a chimera comprising rat 1-392 aa, rat 393-646 aa, and human 647-764 aa. RHR (SEQ ID NO:16) was a chimera comprising rat 1-392, human 391-646, and rat 647-761. […]

In the case of Delta-9-tetrahydrocannabinol [Δ^9-THC], the “response of rat TRPV2 deletion mutants to the compound” value in assay [1] is reported as “still active”. In addition, the “response of chimera HRR to the compound” value in assay [2] is “not active”.

The values above are taken from patent US7575882B2, “Compositions and methods for identifying modulators of TRPV2” (Janssen Pharmaceutica N. V., priority 2005, dated 2009).
